# ChEMBL document CHEMBL5528050, “Discovery of a Novel Series of Homo sapiens Caseinolytic Protease P Agonists for Colorectal Adenocarcinoma Treatment via ATF3-Dependent Integrated Stress Response” (J Med Chem, 2024)
# Test: Antiproliferative activity against human L02 cells assessed as inhibition of cell growth measured after 72 hrs by CCK-8 method
# Format: toxicity, cell-based
structure (smiles),measurement,value
N#Cc1cccc(CN2CCC=C(C(=O)NCc3ccc(C(F)(F)F)cc3)C2)c1,IC50 at 72 h,64.1 µM
